Experiments:
[1] = system: IFNg on ConA 1° splenocytes; test: Inhibition of IFNγ release from ConA-stimulated splenocytes; format: cell-based, mouse; conditions: ConA-stimulated Balb/c splenocytes, 18-24 hours, ELISA
Experimental: T-lymphocytes obtained from mice spleens are a suitable sample for studying the activation properties of this immunologically important cell type. T-lymphocytes are the main regulators for inflammation. Concanavalin A (ConA) is an effective activator of T-lymphocytes, which allows T-lymphocytes to proliferate and produce inflammatory cytokines, such as Interferon (IFNγ) and regulatory cytokines, such as Interleukin 10 (IL-10).
The spleens were transferred onto mesh screen containing 10 ml of ice cold RPMI-5 (1× sodium pyruvate and 5% FBS) and gently ground with a pestle. The cell suspensions were centrifuged at 1500 rpm for 6 minutes at 4° C. […] The supernatant was discarded and the pellet washed two additional times. The cells were resuspended in RPMI-5 and the cell suspensions combined. The cells were counted and their concentration was adjusted to 2.8×10^6 cells/ml using RPMI-5.
(§1) The working concentration of ConA was […]. A 20× working concentration of Concanavalin A was […] was prepared using RPMI-5. The test compounds, dimethylsulfoxide (DMSO) negative vehicle control and staurosporine positive control were diluted twenty times using RPMI-5. Ten μL each of DMSO and staurosporine were combined with 180 μl of medium containing splenocytes in the wells, and 10 μl of 50 μg/ml ConA was immediately added. Medium without ConA was added to the control wells. […] The plates were incubated at 37° C. in 5% CO2 in humidified conditions overnight (18-24 hours) for INFγ.
At the completion of the stimulation described above, the plates were spun at 2000 rpm for 10 minutes. The supernatants (100 μl) from each well were transferred to fresh plates for INFγ analysis by ELISA.
INFγ levels in the supernatants from stimulated lymphocytes were determined with PharMingen's OptEIA™ INFγ Kit (PharMingen) according to manufacturer's directions. The data, shown in Table 2 infra, is represented as a percentage of INFγ inhibition by the following formula: INFγ inhibition=100−(AVG treatment/AVG DMSO control)*100.

K5P5 podocyte cell line = test: Survival assay in podocytes (PAN treatment, MTS); format: cell-based, murine; conditions: for IC50: Mus musculus, PAN treated, MTS; for % Survival: PAN treated K5P5 podocytes
Text: The treatment of glomerular visceral epithelial cells (podocytes) with high concentrations of puromycin aminonucleoside (PAN) causes significant cytotoxic effects. An assessment of cell viability subsequent to a cytotoxic exposure can be judged qualitatively by examining changes in cell phenotype after staining with crystal violet or determined quantitatively by employing a cytotoxic assay using the soluble tetrazolium salt [3-(4,5-dimethylthiazol-2-yl)-5-(3-carboxymethoxyphenyl)-2-(4-sulfophenyl)-2H-tetrazolium, inner salt] (MTS). Such a system can be used to evaluate the survival effects that ILK compounds have on podocytes following exposure to PAN or other cytotoxic agents.
The cell line employed for the podocyte model was the murine K5P5. […] The cells should be propagate to a maximum of 20 passages.
The flasks were incubated at 37° C., 5% CO2 for 3 days.
The flasks were incubated at 37° C., 5% CO2 for 4 days.
Cells were trypsinized (0.25%), collected from the tissue culture flasks centrifuged, resuspended and counted. […] The flasks were incubated at 37° C., 5% CO2 for 3 days.
10 μl of this 10× compound solution is added to the 80 μl of cells already present in the 96-well plates. For cell undergoing cytotoxic treatment, puromycin aminonuceloside (PAN, Sigma P7130) was added at a 10× concentration to 90 μl of cells. The positive control is PAN treatment without compound. The negative control is 100% DMSO diluted to the same factor as the compounds without PAN.
The plates are incubated at 37° C., 5% CO2 for 48 to 72 hours depending on the PAN concentration (i.e. lower concentrations of PAN required a longer incubation period). The medium is aspirated after plates are spun at 2400 rpm for 10 min at ambient temperature. 100 μl of 1×DPBS (without CaCl2, without MgCl2) is added to each well.
The MTS (Promega) is prepared under low lighting conditions by dissolving 4.0 g of MTS in 1.8 I of 1×DPBS. The solution is allowed to sit for 10 minutes and pH adjusted to 6.2. […] Absorbance is measured at 490 nm wavelength with a microplate reader.

macrophages = test: Survival of macrophages; format: cell-based, mouse; conditions: Mus musculus, Macrophage; stimulated primary macrophages
Experimental: Peritoneal exudate macrophages were isolated by peritoneal lavage with ice-cold sterile physiological saline 24 hours after intraperitoneal injection of BALB/c mice with 0.3 ml of sterile zymosan A (1 mg/0.5 mL 0.9% saline). […] 1.5×10^5 cells/well were seeded in 96-well plates and followed by 3 hour incubation at 37° C. with 5% CO2 (macrophages were allowed to attach) cells were stimulated with LPS ([…]/mL) and IFN-γ (100 U/mL) in the absence or presence of the test compounds. All treatments were replicated six times. Cells were incubated for an additional 24 hours, and cell free culture supernatants from each well were collected for NO and cytokine determination. The remaining cells were stained with crystal violet to determine effect of the compound on cell survival.

TNFa on macrophages = test: Inhibition of TNFα release from stimulated macrophages; format: cell-based, mouse; conditions: Mus musculus, Macrophage; LPS and IFN-γ stimulated primary macrophages, ELISA
Experimental: Peritoneal exudate macrophages were isolated by peritoneal lavage with ice-cold sterile physiological saline 24 hours after intraperitoneal injection of BALB/c mice with 0.5 mL of sterile Zymosan A (1 mg/0.5 mL 0.9% saline). […] Murine primary macrophage will get activated following incubation with LPS in the presence of sub-optimal doses of IFN-γ. […] TNF-αlevels in the supernatants from stimulated macrophages were determined with PharMingen's OptEIA TNF-α kit (PharMingen). The experiment was performed at room temperature, about 21° C., unless otherwise stated. The microwells (F8 MaxiSorp™ Loose/Nunc-Immuno Module; Gibco/BRL) were coated with 100 μl/well of capture antibody (at the recommended concentration) and incubated overnight at 4° C. […] Next, the solution was removed and the plates were washed 5× with wash buffer. The TNF-αanalysis was initiated by adding duplicate samples (100 μl/well) or standards (100 μl/well) in diluent buffer which were incubated for 2 h. The solution was removed and the plates washed 5× with wash buffer. Enzyme reagent (100 μl) containing biotinylated mouse TNF-αmonoclonal antibody and avidin-horseradish peroxidase conjugate (at concentrations recommended by the manufacturer) was added to each well. The plate was incubated for 1 hour, the solution removed, and the plates washed 7× with wash buffer. […] Colour development was terminated by adding 50 μl of 2N H2SO4. […] Peritoneal exudate macrophages were isolated by peritoneal lavage with ice-cold sterile physiological saline 24 hours after intraperitoneal injection of BALB/c mice with 0.3 ml of sterile zymosan A (1 mg/0.5 mL 0.9% saline). […] All treatments were replicated six times. Cells were incubated for an additional 24 hours, and cell free culture supernatants from each well were collected for NO and cytokine determination. The remaining cells were stained with crystal violet to determine effect of the compound on cell survival.

MCP1 on HUVECS = test: Inhibition of MCP-1 release from TNFα-stimulated HUVEC; format: cell-based, human; conditions: Homo sapiens, 18-24 hours, ELISA
Text: The activation of endothelial cells by pro-inflammatory cytokine TNF-α leads to the production of several chemokines. The release of these chemokines play an important role in leukocyte trafficking and extravasation of leukocytes into tissue during inflammation. MCP-1 and IL-8 are among the chemokines released upon stimulation of human endothelial cells (HUVECs) by TNFα, and contribute to migration of monocytes to the sites of inflammation. Cells should not be passaged more than 6 times.
Cells were maintained and grown in tissue culture flasks (T75) in endothelial cell growth medium (EGM, Clonetics) containing 5 additional supplements (EGM-5) in medium [human recombinant endothelial growth factor (hEGF), hydrocortisone (HC), bovine brain extract (BBE), fetal bovine serum (FBS) and Gentamycin (GA)] incubated at 37° C., 5% CO2. The cells should be propagated a maximum of 20 passages.
The plates were incubated overnight at 37° C., 5% CO2 to enable the cells to attach and grow.
The working concentration of TNFα was 1,000 pg/ml. A twenty times working concentration of TNFα was 20,000 pg/ml was prepared using EGM-5. The test compounds, DMSO negative vehicle control and staurosporine positive control were diluted 20× using EGM-5. Ten μL each of the compounds, DMSO and staurosporine were combined with 180 μl of medium containing HUVEC cells. Immediately following the addition of the compounds, 10 μl of […] TNFα was added to the wells. Medium without TNFα was added to the control wells. […] The plates were incubated at 37° C. in 5% CO2 in humidified conditions overnight (18-24 hours) for TNFα.
At the completion of the stimulation, the plates were spun at 2000 rpm for 10 minutes. The supernatants from each well were transferred to fresh plates for MCP1 analysis by ELISA.
[…] were determined with PharMingen's OptEIA™ MCP1 Kit (PharMingen) according to manufacturer's instructions.
The data is represented as a percentage of MCP1 inhibition by the following formula: % MCP1 inhibition=100−(AVG treatment/AVG DMSO control)*100.

ConA 1° splenocytes = test: Survival of ConA 1° splenocytes (cytotoxicity by MTS staining); format: cell-based, mouse; conditions: ConA-stimulated splenocytes
Experimental: as §1
(MTS). The MTS solution was made fresh and under low light. The electron coupling reagent phenazine methosulfate (PMS) was added at the time of the assay. Twenty μL of MTS solution per 100 μl of tissue culture medium was added to each well. The plates were incubated 37° C. for 4 hours for unstimulated and 18-24 ConA stimulated splenocytes. The absorbance was read at 490 nm wavelength. A kit available to do this assay is “CellTiter 96® AQ Kit AQueous Kit (G5421)” by Promega.

Q: `CNS(=O)(=O)c1cc2sc(-c3c(N)n[nH]c3C)nc2cc1F` [2-(3-Amino-5-methyl-1H-pyrazol-4-yl)-5-fluorobenzothiazole-6-sulfonic acid methylamide] was tested. Which IC50 ([1]; Mus musculus, Splenocyte) did it give?
A: 0.368 µM

Q: Which IC50 (K5P5 podocyte cell line) does the source give for `CNS(=O)(=O)c1ccc2nc(-c3c(N)n[nH]c3C)sc2c1` [2-(3-Amino-5-methyl-1H-pyrazol-4-yl)benzothiazole-6-sulfonic acid methylamide] here?
A: 12.5 µM

Q: What does the source list for `Cc1n[nH]cc1-c1nc2ccccc2s1` [2-(3-Methyl-1H-pyrazol-4-yl)-benzothiazole]?
A: IC50 (macrophages): > 25 µM; IC50 (TNFa on macrophages): > 25 µM; IC50 (MCP1 on HUVECS): > 25 µM

Q: How did the “% Survival” value (K5P5 podocyte cell line; @ 12.5 μM) turn out when `Cc1n[nH]c(N)c1-c1nc2cc(F)c(S(N)(=O)=O)cc2s1` [2-(5-Amino-3-methyl-1H-pyrazol-4-yl)-5-fluoro-benzothiazole-6-sulfonic acid amide] was run?
A: 30%

Q: What about the IC50 (TNFa on macrophages) of the same compound?
A: 0.9 µM

Q: For `Cc1n[nH]c(N)c1-c1nc2cc(F)c(S(=O)(=O)NCCO)cc2s1` [2-(5-Amino-3-methyl-1H-pyrazol-4-yl)-5-fluorobenzothiazole-6-sulfonic acid (2-hydroxy-ethyl)-amide], which “% Survival” value (K5P5 podocyte cell line; @ 25 μM) is on record?
A: 30%

Q: And the IC50 (ConA 1° splenocytes; Mus musculus, Splenocyte)?
A: > 25 µM

Q: How did the IC50 (TNFa on macrophages) turn out when `Nc1n[nH]c(CCCO)c1-c1nc2ccccc2s1` [3-(5-Amino-4-benzothiazol-2-yl-2H-pyrazol-3-yl)-propan-1-ol] was run?
A: > 25 µM

Q: And the IC50 (MCP1 on HUVECS)?
A: ~25 µM

Q: For `COc1cc2sc(-c3c(-c4ccco4)n[nH]c3N)nc2cc1F` [4-(5-Fluoro-6-methoxybenzothiazol-2-yl)-5-furan-2-yl-2H-pyrazol-3-ylamine], which IC50 (K5P5 podocyte cell line) is on record?
A: 2.5 µM

Q: What does the source list for `COc1cc2sc(-c3c(-c4ccncc4)n[nH]c3N)nc2cc1F` [4-(5-Fluoro-6-methoxybenzothiazol-2-yl)-5-pyridin-4-yl-2H-pyrazol-3-ylamine]?
A: IC50 (macrophages): > 25 µM; IC50 (TNFa on macrophages): > 25 µM; IC50 (ConA 1° splenocytes; Mus musculus, Splenocyte): > 25 µM; IC50 (MCP1 on HUVECS): > 25 µM

Q: For `Cc1cc2sc(-c3cn[nH]c3N)nc2cc1F` [4-(5-Fluoro-6-methylbenzothiazol-2-yl)-2H-pyrazol-3-ylamine], which IC50 ([1]; Mus musculus, Splenocyte) is on record?
A: > 25 µM

Q: What about the IC50 (ConA 1° splenocytes; Mus musculus, Splenocyte) of the same compound?
A: > 25 µM

Q: With `Cc1n[nH]c(N)c1-c1nc2ccc(CN(C)C)cc2s1` [4-(6-Dimethylaminomethylbenzothiazol-2-yl)-5-methyl-2H-pyrazol-3-ylamine] as the compound, how does the IC50 (K5P5 podocyte cell line) read?
A: 12.5 µM

Q: For `Nc1n[nH]cc1-c1nc2ccc(F)cc2s1` [4-(6-Fluorobenzothiazol-2-yl)-1H-pyrazol-3-ylamine], which IC50 (macrophages) is on record?
A: > 25 µM

Q: And the IC50 (TNFa on macrophages)?
A: > 25 µM

Q: And the IC50 (MCP1 on HUVECS)?
A: ~25 µM

Q: For `COc1ccc2nc(-c3c(N4CCNCC4)n[nH]c3N)sc2c1` [4-(6-Methoxybenzothiazole)-5-piperizin-1-yl-2H-pyrazol-3-ylamine], which IC50 [1] is on record?
A: 5.9 µM

Q: What about the IC50 (ConA 1° splenocytes) of the same compound?
A: 20.5 µM

Q: Which results are given for `Nc1[nH]nc(N2CCNCC2)c1-c1nc2ccccc2s1` [4-Benzothiazol-2-yl-5-piperazin-1-yl-2H-pyrazol-3-ylamine]?
A: IC50 (macrophages): > 25 µM; IC50 (TNFa on macrophages): > 25 µM

Q: Which results are given for `CNCc1ccc2nc(-c3c(C)n[nH]c3N)sc2c1` [5-Methyl-4-(6-methylaminomethylbenzothiazol-2-yl)-2H-pyrazol-3-ylamine]?
A: IC50 ([1]; Mus musculus, Splenocyte): 0.5 µM; IC50 (ConA 1° splenocytes; Mus musculus, Splenocyte): 0.9 µM

Q: What does the source list for `COc1cc2sc(-c3c(NCCCN(C)C)n[nH]c3N)nc2cc1F` [N^3-(3-Dimethylaminopropyl)-4-(5-fluoro-6-methoxybenzothiazole)-1H-pyrazole-3,5-diamine]?
A: IC50 [1]: 10.2 µM; IC50 (ConA 1° splenocytes): ~25 µM

Source: US8754233B2, “Pyrazolylbenzothiazole derivatives and their use as therapeutic agents” (Dermira (Canada), Inc., priority 2002, dated 2014)
